Seven compounds from patent publication US20250223276A1, “Substituted Pyrrolidinyl And Piperidinyl Compounds And Related Methods Of Treatment” (Alkermes, Inc., priority 2022, published 2025) can be followed below.

A word on the EC50: it is the midpoint of the concentration-response curve. Lower therefore signals higher potency in that assay.

In this assay the target is T1, human orexin-2 receptor (OX2R) (Homo sapiens, UniProt O43614).
T1 construct: expressed in transfected cells
T1 sequence (O43614 1-444): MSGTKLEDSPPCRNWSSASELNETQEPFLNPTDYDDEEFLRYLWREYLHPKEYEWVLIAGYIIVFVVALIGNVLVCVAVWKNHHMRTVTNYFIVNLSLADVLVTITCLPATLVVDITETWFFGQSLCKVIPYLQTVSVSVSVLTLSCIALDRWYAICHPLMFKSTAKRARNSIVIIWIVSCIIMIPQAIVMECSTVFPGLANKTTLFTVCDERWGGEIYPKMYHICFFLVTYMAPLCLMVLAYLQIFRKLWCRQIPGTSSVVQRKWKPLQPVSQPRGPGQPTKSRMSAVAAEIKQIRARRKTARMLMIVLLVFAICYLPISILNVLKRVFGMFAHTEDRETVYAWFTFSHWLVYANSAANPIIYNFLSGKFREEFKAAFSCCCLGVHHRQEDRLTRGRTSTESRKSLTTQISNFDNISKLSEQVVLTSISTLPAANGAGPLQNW
Kind of assay: Human OX2R IP1 assay. In kind it is cell-based. The conditions noted are these: T-Rex CHO cells stably overexpressing human OX2R; IP1 (inositol monophosphate) accumulation, HTRF; 1 hr at 37 degrees C. The protocol:
T-Rex CHO cells stably overexpressing the human orexin-2 receptor (OX2R) are induced overnight with 1 μg/mL of doxycycline in a T225 flask. 24 hours post induction, cells are lifted with accutase and plated into a 384-well proxy plate at 30,000 cells/well. Cells are then treated with different test compounds in 1× stimulation buffer containing 10 mM Hepes, 1 mM CaCl2), 0.5 mM MgCl2, 4.2 mM KCl, 146 mM NaCl, 5.5 mM glucose, and 50 mM LiCl, pH 7.4, for 1 hr at 37 degrees C. Following incubation, the reaction is terminated by the addition of detection mix, which is composed of IP1-d2 and anti-IP1-cryptate diluted in lysis buffer as well as 1× stimulation buffer. The plates are allowed to incubate for 1 hour at room temperature and are then read in the En Vision® multimode plate reader, measuring inositol phosphate levels.
Cisbio IP1 is a cell-based functional assay quantifying the accumulation of inositol monophosphate (IP), a metabolite released as a result of orexin 2 receptor activation through the phospholipase C-Gq signaling pathway. This is a competitive immunoassay in which the IP1 produced by the cells upon receptor activation competes with the IP1 analog coupled to the d2 fluorophore (acceptor) for binding to an anti-IP1 monoclonal antibody labeled with Eu cryptate (donor). The measured HTRF-FRET based signal is inversely proportional to the IP1 concentration produced.
The EC50 values reported in Table 2 were obtained according to the human OX2R IP1 assay described above. Data are the mean EC50 values±S.E.M.
In turn, `COC(=O)N1CC[C@H](NS(=O)(=O)N(C)C)[C@H](CO[C@H]2CC[C@@H](c3cccc(F)c3)CC2)C1` [Compound 16] had an EC50 greater than 1000 nM.
Next, `CN(C)S(=O)(=O)N[C@H]1CCN(C(=O)C2(F)CCC2)C[C@H]1CO[C@H]1CC[C@@H](c2cccc(F)c2)CC1` [Compound 4]: less than 100 nM; `CN(C)S(=O)(=O)N[C@H]1CCN(c2cccnn2)C[C@H]1CO[C@H]1CC[C@@H](c2cccc(F)c2)CC1` [Compound 2]: less than 100 nM; `CN1CCCC1C(=O)N1CC[C@H](NS(=O)(=O)N(C)C)[C@H](CO[C@H]2CC[C@@H](c3cccc(F)c3)CC2)C1` (stereo partly shown) [Compound 51]: greater than 1000 nM.
Under `C[C@@H](OC(=O)N1CC[C@H](NS(=O)(=O)N(C)C)[C@H](CO[C@H]2CC[C@@H](c3cccc(F)c3)CC2)C1)C(F)F` [Compound 65] stands 100 to 1000 nM; under `O=S(=O)(N[C@H]1CCN(c2cccnn2)C[C@H]1CO[C@H]1CC[C@@H](c2cccc(F)c2)CC1)N1CCC1` [Compound 8], 100 to 1000 nM; under `CN(C)S(=O)(=O)N[C@H]1CCN(C(=O)C2CCC(F)(F)C2)C[C@H]1CO[C@H]1CC[C@@H](c2cccc(F)c2)CC1` (stereo partly shown) [Compound 13], greater than 1000 nM.
